Assay results taken from patent US11180484B2, “Pyrazole derivatives as plasma kallikrein inhibitors” (KALVISTA PHARMACEUTICALS LIMITED, priority 2016, dated 2021).

Columns and labels:
Human FXIa = Human FXIa (Homo sapiens (Human), UniProt P03951); assay: Determination of the % inhibition / IC50 for FXIa; format: biochemical; conditions: for IC50: 25° C., substrate Z-Gly-Pro-Arg-AFC
Description: FXIa inhibitory activity in vitro was determined using standard published methods (see e.g. Johansen et al., Int. J. Tiss. Reac. 1986, 8, 185; Shori et al., Biochem. Pharmacol., 1992, 43, 1209; Sturzebecher et al., Biol. Chem. Hoppe-Seyler, 1992, 373, 1025). […]

Human plasma kallikrein [1] = target: T1, Human plasma kallikrein (Homo sapiens (Human), UniProt P03952); assay: Determination of the IC50 for plasma kallikrein; format: biochemical; conditions: 25° C., substrate H-DPro-Phe-Arg-AFC; read-out: IC50 (human PKal)
T1 sequence (P03952 391-638): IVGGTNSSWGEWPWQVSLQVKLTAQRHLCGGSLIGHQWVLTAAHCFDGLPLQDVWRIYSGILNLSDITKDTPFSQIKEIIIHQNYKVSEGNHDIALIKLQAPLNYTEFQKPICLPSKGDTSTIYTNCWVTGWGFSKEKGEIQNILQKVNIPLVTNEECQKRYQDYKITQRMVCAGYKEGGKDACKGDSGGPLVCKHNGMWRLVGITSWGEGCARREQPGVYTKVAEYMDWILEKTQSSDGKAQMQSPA
T1 sequence (P03952 20-390): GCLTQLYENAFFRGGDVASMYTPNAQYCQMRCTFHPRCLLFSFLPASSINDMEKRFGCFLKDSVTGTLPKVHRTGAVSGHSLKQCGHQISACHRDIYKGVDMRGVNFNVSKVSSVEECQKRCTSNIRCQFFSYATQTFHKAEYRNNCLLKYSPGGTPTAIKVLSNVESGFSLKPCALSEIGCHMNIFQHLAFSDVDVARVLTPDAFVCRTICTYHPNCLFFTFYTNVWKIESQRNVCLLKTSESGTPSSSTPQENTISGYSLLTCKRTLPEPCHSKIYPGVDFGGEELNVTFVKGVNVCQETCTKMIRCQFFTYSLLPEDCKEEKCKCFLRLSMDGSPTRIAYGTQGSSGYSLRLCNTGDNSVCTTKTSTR
Description: (§1) Human plasma kallikrein (Protogen) was incubated at 25° C. with the fluorogenic substrate H-DPro-Phe-Arg-AFC and various concentrations of the test compound. Residual enzyme activity (initial rate of reaction) was determined by measuring the change in […] at 410 nm and the IC50 value for the test compound was determined.

[2] = Plasma protein binding (PPB), rapid equilibrium dialysis, human plasma; format: in vitro ADME; conditions: 5 μM test compound, dialysis 5 hrs at 37° C.
Description: The fraction unbound in plasma was determined using ThermoScientific™ Pierce™ Rapid Equilibrium Dialysis Technology (Single-Use plate with inserts, 8K MWCO). […] Reference samples from the non-dialysed plasma were taken before the incubation to enable an assessment of recovery. Test compound concentrations were determined in plasma and buffer compartments by LCMS against a calibration curve. […] Results are presented as percent plasma protein bound (% PPB).

Human plasma kallikrein [3] = target: T1, Human plasma kallikrein; assay: Determination of the Ki for plasma kallikrein (mixed-model inhibition); format: biochemical; conditions: for Ki: human plasma kallikrein, mixed-model inhibition equation; for Alpha: parameter of the mixed-model equation indicating mechanism of inhibition
Description: Plasma kallikrein inhibitory activity in vitro was determined using standard published methods (e.g. Johansen et al., Int. J. Tiss. Reac. 1986, 8, 185; Shori et al., Biochem. Pharmacol., 1992, 43, 1209; Sturzebecher et al., Biol. Chem. Hoppe-Seyler, 1992, 373, 1025). […]. Residual enzyme activity (initial rate of reaction) was determined by measuring the change in fluorescence at 410 nm. The Ki value for the test compound was determined using the mixed-model inhibition equation (based on Equation 3.2 in: RA Copeland, Evaluation of Enzyme Inhibitors in Drug Discovery, Wiley 2005) in GraphPad Prism. The mixed model equation includes competitive, uncompetitive and noncompetitive inhibition as special cases and the parameter of Alpha to indicate mechanism of inhibition.

[4] = Predicted plasma clearance (Clp), well-stirred model, human; format: in vitro ADME; conditions: percentage of hepatic blood flow
Description: (§2) The predicted plasma clearance (Clp) is calculated using the well-stirred model (Rowland M, Benet L Z, and Graham G G. Clearance concepts in pharmacokinetics. J Pharmacokinet Biopharm. (1973) 1:123-136.), one of several models that can be used to extrapolate the in vitro data. The model assumes instantaneous and complete mixing of drug within the liver and is a function of intrinsic clearance, hepatic blood flow and free fraction of drug in the blood. The predicted plasma clearance in mL/min/kg is presented as a percentage of hepatic blood flow (LBF).

[5] = Plasma protein binding (PPB), rapid equilibrium dialysis, rat plasma; format: in vitro ADME; conditions: 5 μM test compound, dialysis 5 hrs at 37° C.
Description: The fraction unbound in plasma was determined using ThermoScientific™ Pierce™ Rapid Equilibrium Dialysis Technology (Single-Use plate with inserts, 8K MWCO). 5 μM test compound was spiked into human or rat plasma (300 μL) and dialysed against 146.5 mM phosphate buffer (500 μL) for 5 hrs at 37° C., shaking at 1200 rpm. Reference samples from the non-dialysed plasma were taken before the incubation to enable an assessment of recovery. Test compound concentrations were determined in plasma and buffer compartments by LCMS against a calibration curve. The fraction unbound in plasma was determined using standard methodology (Waters N J et al (2008) J Pharm Sci 97(10); 4586-95). Results are presented as percent plasma protein bound (% PPB).

Human KLK1 = Human KLK1 (Homo sapiens (Human), UniProt P06870); assay: Determination of the IC50 for KLK1; format: biochemical; conditions: 25° C., substrate H-DVal-Leu-Arg-AFC
Chain of Human KLK1 (P06870 25-262): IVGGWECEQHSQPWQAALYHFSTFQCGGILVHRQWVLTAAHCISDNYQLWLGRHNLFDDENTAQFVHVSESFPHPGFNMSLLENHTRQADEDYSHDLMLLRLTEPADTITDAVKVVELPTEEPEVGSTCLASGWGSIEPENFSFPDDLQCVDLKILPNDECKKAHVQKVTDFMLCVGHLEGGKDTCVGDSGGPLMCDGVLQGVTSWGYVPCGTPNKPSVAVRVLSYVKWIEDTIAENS
Description: as §1, with “KLK1 (Callbiochem)” for “plasma kallikrein (Protogen)”, “H-DVal-Leu-Arg-AFC” for “H-DPro-Phe-Arg-AFC”

[6] = Intrinsic clearance in human liver microsomes; format: in vitro ADME; conditions: human liver microsomes 0.5 mg/mL, 5 μM test compound, 37° C.; read-out: Human liver microsome (Clint μL/min/mg protein)
Description: (§3) Rat or human liver microsomes (0.5 mg/mL; Corning) were incubated with 5 μM test compound at 37° C. on a shaking platform (150 rpm). Samples were taken at 0, 6, 12, 18, 24 and 60 min and test compound concentrations were determined by LCMS against a calibration curve.

[7] = Intrinsic clearance in rat liver microsomes; format: in vitro ADME; conditions: rat liver microsomes 0.5 mg/mL, 5 μM test compound, 37° C.; read-out: rat liver microsome (Clint μL/min/mg protein)
Description: as §3

Human Factor XIIa = Human Factor XIIa (Homo sapiens (Human), UniProt P00748); assay: Factor XIIa inhibitory activity in vitro; format: biochemical; conditions: 25° C., substrate H-DPro-Phe-Arg-AFC; read-out: IC50 (human FXIIa)
Chain of Human Factor XIIa (P00748 373-615): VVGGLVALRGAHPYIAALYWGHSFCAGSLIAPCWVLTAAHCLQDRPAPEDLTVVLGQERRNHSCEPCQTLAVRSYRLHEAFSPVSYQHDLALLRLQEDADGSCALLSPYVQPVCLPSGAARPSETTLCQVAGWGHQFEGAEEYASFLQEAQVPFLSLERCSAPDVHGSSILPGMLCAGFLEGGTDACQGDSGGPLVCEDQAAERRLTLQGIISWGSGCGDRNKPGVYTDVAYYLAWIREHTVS
Description: as §1, with “Factor XIIa (Enzyme Research Laboratories)” for “plasma kallikrein (Protogen)”

[8] = In vitro permeability, Caco-2 model for oral absorption; format: in vitro ADME; conditions: human, apical to basolateral, 50 μM test compound, 37° C.
Description: In vitro permeability was determined using the Caco-2 model for oral absorption. The methodology was adapted from standard published methods (Wang Z, Hop C. E., Leung K. H. and Pang J. (2000) J Mass Spectrom 35(1); 71-76). The Caco-2 monolayers were established in a Biocoat™ HTS fibrillar collagen 24 well multiwell insert system (1.0 μm, PET membrane, Corning 354803) in which 200,000 cells were seeded into each insert and maintained over 3 days before being utilised in the permeability assay. For the assay, 50 μM test compound is added to the apical side of the inserts and incubated for 1 hour at 37° C. on a shaking platform (120 rpm). Apical to basolateral transport was determined by measuring the test article in both compartments by LCMS following the 1 hour incubation. The integrity of the Caco-2 monolayers was confirmed by two methods, (i) comparison of pre- and post-experiment transepithelial electrical resistance (TEER) and, (ii) assessment of Lucifer Yellow flux.

[9] = Predicted plasma clearance (Clp), well-stirred model, rat; format: in vitro ADME; conditions: percentage of hepatic blood flow
Description: as §2

Chain of Human FXIa (P03951 388-625): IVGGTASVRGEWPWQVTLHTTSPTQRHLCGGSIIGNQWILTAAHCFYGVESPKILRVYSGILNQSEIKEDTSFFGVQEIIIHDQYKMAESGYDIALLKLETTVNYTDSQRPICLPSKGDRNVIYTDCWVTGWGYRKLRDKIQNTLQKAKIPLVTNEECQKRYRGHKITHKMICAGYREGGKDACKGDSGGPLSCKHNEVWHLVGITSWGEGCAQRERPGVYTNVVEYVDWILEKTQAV
Chain of Human FXIa (P03951 19-387): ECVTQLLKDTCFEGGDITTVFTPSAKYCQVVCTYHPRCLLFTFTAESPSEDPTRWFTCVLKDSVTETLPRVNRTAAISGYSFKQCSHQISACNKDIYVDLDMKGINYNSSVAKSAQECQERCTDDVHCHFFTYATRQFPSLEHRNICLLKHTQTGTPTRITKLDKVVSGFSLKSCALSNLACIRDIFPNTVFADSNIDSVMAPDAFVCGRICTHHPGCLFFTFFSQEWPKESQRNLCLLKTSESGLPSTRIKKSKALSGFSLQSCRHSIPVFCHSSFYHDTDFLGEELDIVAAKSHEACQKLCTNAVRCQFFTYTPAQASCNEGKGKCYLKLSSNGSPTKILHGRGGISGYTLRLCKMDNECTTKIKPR

COCc1nn(Cc2ccc(Cn3ccccc3=O)cc2)cc1C(=O)NCc1c(F)cccc1-n1cnnn1 [Reference Example H, N-{[2-Fluoro-6-(1,2,3,4-tetrazol-1-yl)phenyl]methyl}-3-(methoxymethyl)-1-({4-[(2-oxopyridin-1-yl)methyl]phenyl}methyl)pyrazole-4-carboxamide, reference compound]
IC50 (Human FXIa): > 40 µM | IC50 (Human plasma kallikrein [1]): 1.1 nM | fraction unbound at 5 h, 5 μM [2]: 0.16 | Ki (Human plasma kallikrein [3]): 0.52 nM | Alpha (Human plasma kallikrein [3]): 108 | Predicted in vivo human Clp (% LBF) [4]: 14 % LBF | fraction unbound at 5 h, 5 μM [5]: 0.13 | IC50 (Human KLK1): > 40 µM | microsomal CLint at 5 μM [6]: 25 µL/min/mg | microsomal CLint at 5 μM [7]: 94 µL/min/mg | IC50 (Human Factor XIIa): > 40 µM | Papp at 1 h, 50 μM [8]: 12 ×10⁻⁶ cm/s | Predicted in vivo rat Clp (% LBF) [9]: 26 % LBF

COCc1nn(Cc2ccc(Cn3cc(C)cn3)cc2)cc1C(=O)NCc1cc(OC)ccc1-n1cnnn1 [Example 61, N-{[5-methoxy-2-(1,2,3,4-tetrazol-1-yl)phenyl]methyl}-3-(methoxymethyl)-1-({4-[(4-methylpyrazol-1-yl)methyl]phenyl}methyl)pyrazole-4-carboxamide]
IC50 (Human FXIa): > 40 µM | IC50 (Human plasma kallikrein [1]): 1.7 nM | fraction unbound at 5 h, 5 μM [2]: 0.08 | Predicted in vivo human Clp (% LBF) [4]: 4 % LBF | fraction unbound at 5 h, 5 μM [5]: 0.04 | IC50 (Human KLK1): > 4 µM | microsomal CLint at 5 μM [6]: 55 µL/min/mg | microsomal CLint at 5 μM [7]: 132 µL/min/mg | IC50 (Human Factor XIIa): > 4 µM | Papp at 1 h, 50 μM [8]: 22 ×10⁻⁶ cm/s | Predicted in vivo rat Clp (% LBF) [9]: 15 % LBF

COc1ccnc(CNC(=O)c2cn(Cc3ccc(Cn4ccccc4=O)cc3)nc2N)c1F [Example 5, 3-amino-N-[(3-fluoro-4-methoxypyridin-2-yl)methyl]-1-({4-[(2-oxopyridin-1-yl)methyl]phenyl}methyl)pyrazole-4-carboxamide]
IC50 (Human FXIa): > 40 µM | IC50 (Human plasma kallikrein [1]): 2 nM | fraction unbound at 5 h, 5 μM [2]: 0.23 | Predicted in vivo human Clp (% LBF) [4]: 3 % LBF | fraction unbound at 5 h, 5 μM [5]: 0.36 | IC50 (Human KLK1): > 40 µM | microsomal CLint at 5 μM [6]: 3 µL/min/mg | microsomal CLint at 5 μM [7]: 6 µL/min/mg | IC50 (Human Factor XIIa): > 40 µM | Papp at 1 h, 50 μM [8]: 2 ×10⁻⁶ cm/s | Predicted in vivo rat Clp (% LBF) [9]: 5 % LBF

COCc1nn(Cc2ccc(Cn3cc(C)cn3)cc2)cc1C(=O)NCc1c(-n2cnnn2)ccc(OC)c1F [Example 60, N-{[2-fluoro-3-methoxy-6-(1,2,3,4-tetrazol-1-yl)phenyl]methyl}-3-(methoxymethyl)-1-({4-[(4-methylpyrazol-1-yl)methyl]phenyl}methyl)pyrazole-4-carboxamide]
inhibition at 40 µM (Human FXIa; 40 μM test compound, read-out: % Inhibition @ 40 μM (human FXIa)): 90% | IC50 (Human FXIa): 4.7 µM | IC50 (Human plasma kallikrein [1]): 0.9 nM | fraction unbound at 5 h, 5 μM [2]: 0.09 | Ki (Human plasma kallikrein [3]): 0.3 nM | Alpha (Human plasma kallikrein [3]): 1.6 | Predicted in vivo human Clp (% LBF) [4]: 35 % LBF | fraction unbound at 5 h, 5 μM [5]: 0.03 | IC50 (Human KLK1): > 40 µM | microsomal CLint at 5 μM [6]: 90 µL/min/mg | microsomal CLint at 5 μM [7]: 114 µL/min/mg | IC50 (Human Factor XIIa): > 40 µM | Papp at 1 h, 50 μM [8]: 25 ×10⁻⁶ cm/s | Predicted in vivo rat Clp (% LBF) [9]: 12 % LBF

COc1ccc(-n2cnnn2)c(CNC(=O)c2cn(Cc3ccc(N4CCCC4)nc3)nc2C(F)(F)F)c1F [Example 83, N-{[2-fluoro-3-methoxy-6-(1,2,3,4-tetrazol-1-yl)phenyl]methyl}-1-{[6-(pyrrolidin-1-yl)pyridin-3-yl]methyl}-3-(trifluoromethyl)pyrazole-4-carboxamide]
IC50 (Human FXIa): 0.23 µM | IC50 (Human plasma kallikrein [1]): 0.3 nM | Ki (Human plasma kallikrein [3]): 0.53 nM | Alpha (Human plasma kallikrein [3]): 2.24 | IC50 (Human KLK1): > 40 µM | IC50 (Human Factor XIIa): > 40 µM | Papp at 1 h, 50 μM [8]: 23 ×10⁻⁶ cm/s

O=C(NCc1c(F)cccc1-n1cnnn1)c1cn(Cc2ccc(Cn3ccccc3=O)cc2)nc1C(F)(F)F [Example 64, N-{[2-fluoro-6-(1,2,3,4-tetrazol-1-yl)phenyl]methyl}-1-({4-[(2-oxopyridin-1-yl)methyl]phenyl}methyl)-3-(trifluoromethyl)pyrazole-4-carboxamide]
IC50 (Human FXIa): > 40 µM | IC50 (Human plasma kallikrein [1]): 0.6 nM | fraction unbound at 5 h, 5 μM [2]: 0.08 | Predicted in vivo human Clp (% LBF) [4]: 19 % LBF | fraction unbound at 5 h, 5 μM [5]: 0.09 | IC50 (Human KLK1): > 4 µM | microsomal CLint at 5 μM [6]: 35 µL/min/mg | microsomal CLint at 5 μM [7]: 94 µL/min/mg | IC50 (Human Factor XIIa): > 4 µM | Papp at 1 h, 50 μM [8]: 6 ×10⁻⁶ cm/s | Predicted in vivo rat Clp (% LBF) [9]: 33 % LBF

COCc1nn(Cc2cnc(N3CCC(F)(F)C3)nc2)cc1C(=O)NCc1cc(OC)ccc1-n1cnnn1 [Example 88, 1-{[2-(3,3-difluoropyrrolidin-1-yl)pyrimidin-5-yl]methyl}-N-{[5-methoxy-2-(1,2,3,4-tetrazol-1-yl)phenyl]methyl}-3-(methoxymethyl)pyrazole-4-carboxamide]
IC50 (Human FXIa): 4.88 µM | IC50 (Human plasma kallikrein [1]): 8.3 nM | Ki (Human plasma kallikrein [3]): 2.9 nM | IC50 (Human KLK1): > 40 µM | IC50 (Human Factor XIIa): > 40 µM

COc1cccc(CNC(=O)c2cn(Cc3ccc(Cn4ccccc4=O)cc3)nc2N)c1F [Reference Example B, 3-Amino-1-[4-(2-oxo-2H-pyridin-1-ylmethyl)-benzyl]-1H-pyrazole-4-carboxylic acid 2-fluoro-3-methoxy-benzylamide, reference compound]
IC50 (Human FXIa): > 40 µM | Ki (Human plasma kallikrein [3]): 6.7 nM | Alpha (Human plasma kallikrein [3]): 48 | IC50 (Human KLK1): > 10 µM | IC50 (Human Factor XIIa): > 40 µM
